For orientation: GI50 means the concentration at which growth is held to half of that of the control.

For test [1], the target named is T1, Topoisomerase II (Homo sapiens, UniProt P11388).
T1 construct: purchased
Put plainly: Topoisomerase II assay. Type of test: biochemical. Also on record: key to Inhibitory activity Topoisomerase II: ∘: Inhibitory activity is present; Δ: Weak inhibitory activity is present; x: No inhibitory activity is present. The protocol:
The inhibitory action of a test substance (Compound 3) on Topoisomerase I and Topoisomerase II was examined.
2. Topoisomerase II Assay
Assay was performed in accordance with the attachment to Topoisomerase II Assay Kit, as follows.
(1) 10×Topo II Incomplete Assay A and 10×ATP Buffer B were mixed in equal amounts to prepare 5× Complete Assay Buffer (prepared when used).
(2) Assay solution was prepared in accordance with the following table.
(3) Incubated at 37° C. for 30 minutes (4) 5 μl of 5× Stop Buffer/gel loading dye was added (5) 1 μl of 1.3 mg/mL protease K solution (prepared with distilled water) was added (final concentration of protease K is 50 μg/mL) (6) Incubated at 37° C. for 20 minute (7) Total amount was applied to 1% agarose gel (containing EtBr) and analyzed by electrophoresis using a single concentration TAE buffer (prepared with distilled water). (8) After electrophoresis, the 1% agarose gel was stained with 0.5 μg/mL EtBr solution (prepared with single concentration TAE buffer) (9) Irradiated with UV ray and photographed.

In test [2] the test system is MKN1 (stomach cancer). Briefly: Evaluation of anticancer action, cell proliferation inhibition (WST-8), MKN1. Type of test: cell-based. As to conditions: Homo sapiens, MKN-1, MKN1, about 72 hours. An excerpt:
(§1) The cell proliferation inhibitory effects of a test substance (Compound 3) on various types of cancer cells were examined.
(§2) 1. Measuring Reagent and Analysis Software
(§3) WST-8 Kit (Cat. No. 260-96165 or 260-96162; manufactured by Kishida Chemical Co., Ltd.) for counting cell number
(§4) Software for graph making and measurement of GI50 value: XLfit 5.2 (ID Business Solutions Ltd.)
(§5) 2. Cells and Culture Conditions
(§6) Five types of cells and medium (the following Table) were used. The cells were obtained from the Research Resource Bank of the Human Sciences Foundation.
(§7) On the day when a sample was to be added, the sample was weighed and a medium for each type of cells was added so as to be 500 μg/mL. Sonication was performed while warming at 37° C. for 60 minutes to be dissolved. Then, filtration was performed by a 0.22 m-filter. The 500 μg/mL-solution was diluted with the medium for each type of cells to prepare 200 μg/mL, 60 μg/mL, 20 μg/mL, 6 μg/mL, 2 μg/mL, 0.6 μg/mL and 0.2 μg/mL solutions, which were specified as two-fold concentration test solutions (the final concentrations of the test substance were 250 µg/mL, 100 μg/mL, 30 μg/mL, 10 μg/mL, 3 μg/mL, 1 μg/mL, 0.3 μg/mL, […], respectively). […]
(§8) (8) Absorbance values at 450 nm and 650 nm were measured to calculate O.D. 450 and O.D. 650. […]
(§9) ODdrug-exposed wells: absorbance of a well containing a sample […]

In test [3] the test system is HL60 (myelocytic leukemia). Put plainly: Evaluation of anticancer action, cell proliferation inhibition (WST-8), HL60. Type of test: cell-based. The following applies: Homo sapiens, HL-60, HL60, about 96 hours.
Description: as §1, §2, §3, §4, §5, §6, §7, §8, §9
A general note: Formazan colour is commonly taken as a measure of viable cells.

Values after ≈ are worked out from the molar mass of the structure shown.

T1 sequence (P11388 whole entry): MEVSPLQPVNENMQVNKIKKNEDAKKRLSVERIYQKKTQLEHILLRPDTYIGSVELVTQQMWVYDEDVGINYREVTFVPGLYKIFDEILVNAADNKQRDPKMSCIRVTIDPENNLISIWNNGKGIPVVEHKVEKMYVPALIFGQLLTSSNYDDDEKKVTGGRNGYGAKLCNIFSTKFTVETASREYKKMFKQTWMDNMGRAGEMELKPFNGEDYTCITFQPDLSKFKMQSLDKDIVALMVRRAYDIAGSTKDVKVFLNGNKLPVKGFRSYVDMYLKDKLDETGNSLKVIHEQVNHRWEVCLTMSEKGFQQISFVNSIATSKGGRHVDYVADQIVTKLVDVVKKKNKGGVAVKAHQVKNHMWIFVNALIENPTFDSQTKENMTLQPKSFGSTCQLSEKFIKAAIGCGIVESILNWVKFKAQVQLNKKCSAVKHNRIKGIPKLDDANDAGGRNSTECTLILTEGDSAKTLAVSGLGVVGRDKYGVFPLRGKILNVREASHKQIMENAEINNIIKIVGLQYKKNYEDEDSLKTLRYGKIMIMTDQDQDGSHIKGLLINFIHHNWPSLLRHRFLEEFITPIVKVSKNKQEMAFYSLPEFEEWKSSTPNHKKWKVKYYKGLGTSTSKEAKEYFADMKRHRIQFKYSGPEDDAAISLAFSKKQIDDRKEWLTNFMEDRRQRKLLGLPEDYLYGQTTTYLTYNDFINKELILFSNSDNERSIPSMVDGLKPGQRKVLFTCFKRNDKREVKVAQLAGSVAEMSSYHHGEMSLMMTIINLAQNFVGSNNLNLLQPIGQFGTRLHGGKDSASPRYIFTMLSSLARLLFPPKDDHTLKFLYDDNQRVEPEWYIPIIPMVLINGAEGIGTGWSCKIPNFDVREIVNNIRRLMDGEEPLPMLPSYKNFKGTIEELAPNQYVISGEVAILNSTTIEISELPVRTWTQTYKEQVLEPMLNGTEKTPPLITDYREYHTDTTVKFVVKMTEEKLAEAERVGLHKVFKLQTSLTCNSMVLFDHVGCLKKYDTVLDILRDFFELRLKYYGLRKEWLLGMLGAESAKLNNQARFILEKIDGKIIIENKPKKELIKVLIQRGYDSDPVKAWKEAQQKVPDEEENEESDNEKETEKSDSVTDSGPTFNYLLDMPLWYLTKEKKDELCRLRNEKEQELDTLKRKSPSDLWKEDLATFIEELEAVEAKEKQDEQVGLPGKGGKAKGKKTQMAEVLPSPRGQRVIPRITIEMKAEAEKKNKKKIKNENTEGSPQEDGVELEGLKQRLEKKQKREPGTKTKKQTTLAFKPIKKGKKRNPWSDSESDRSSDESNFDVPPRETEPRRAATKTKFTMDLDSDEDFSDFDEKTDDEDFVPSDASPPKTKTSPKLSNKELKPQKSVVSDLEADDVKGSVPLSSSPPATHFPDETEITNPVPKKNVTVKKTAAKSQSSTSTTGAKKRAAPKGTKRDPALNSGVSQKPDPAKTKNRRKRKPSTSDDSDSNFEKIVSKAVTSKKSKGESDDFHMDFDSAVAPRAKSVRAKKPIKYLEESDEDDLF

For the molecule `O=C(Nc1ccc(S(F)(F)(F)(F)F)cc1)c1cc(O)c(O)c(O)c1` [Compound 3, 4-(3,4,5-trihydroxybenzoylamino)pentafluorosulfanylbenzene], the “Topoisomerase II inhibitory activity” value in test [1] (5, 50 and 500 μg/mL) is recorded as “inhibitory activity was observed”. The “Inhibitory activity Topoisomerase II” value in test [1] (final concentration 0.5 μg/mL) is “x”; in test [1] (final concentration 5 μg/mL), “∘”; in test [1] (final concentration 50 μg/mL), “∘”; in test [1] (final concentration 500 μg/mL), “∘”. In addition, the GI50 in test [2] amounted to 5.1 µg/mL (≈ 13.7 µM); in test [3], 1.7 µg/mL (≈ 4.58 µM).
